pEC50: −log10 of the molar value.
Tests used:
[1] = test system: EDG-3, EDG-5, EDG-6 and EDG-8; test: EDG-3, -5, -6 and -8 GTP [γ-35S] binding assays (SPA), CHO or RH7777 membranes; type: biochemical, human
Description: (§1) A. In vitro: A scintillation proximity assay (SPA) for measuring GTP [γ-^35S] binding to membranes prepared from CHO cells expressing human EDG/S1P receptors.
EC50 values are obtained by fitting the GTP [γ-^35S] binding curves (raw data) with the dose response curve-fitting tool of ORIGIN V. 6.1. Basal binding (no compound) and the highest stimulation of GTP [γ-^35S] binding achieved by an agonist are used as the fitting range. Seven different concentrations are used to generate a concentration response curve (using two or three data points per concentration).
Concentrations of EDG receptor expressing membranes range between 13-19 μg per well. […] For example, 5-[4-(2′-fluoro-2-trifluoromethyl-biphenyl-4-yloxymethyl)-phenyl]-pyridine-2-carboxylic acid has an EC50 of 0.9 nM in the above assay and is at least 500 fold selective for EDG-1 compared to one or more of the other receptors including EDG-3, EDG-5, EDG-6 and EDG-8.

human EDG-1 = molecular target: T1, human EDG-1 (Homo sapiens, UniProt P21453); test: EDG-1 (S1P1) GTP [γ-35S] binding assay (SPA), membranes of CHO cells; type: biochemical; conditions: membranes from CHO cells expressing human EDG-1
T1 construct: c-myc (N); expressed in transfected cells; host or cells: CHO cell clones (membrane preparation)
Procedure: as §1
EDG-1 (S1P1) GTP [γ-^35S] binding assay: Membrane protein suspensions are prepared from CHO cell clones stably expressing a human EDG-1 N-terminal c-myc tag. Solutions of test compounds ranging from 10 mM to 0.0 nM are prepared in DMSO/50 mM HCl and then diluted into assay buffer (20 mM HEPES, pH7.4, 100 mM NaCl, 10 mM MgCl2, 0.1% fat free BSA). Assay buffer-containing […] is mixed with wheat-germ agglutinin-coated SPA-beads (1 mg/well) followed by the addition of human EDG-1 membrane protein suspension (10 μg/well) and test compound. The bead/membrane/compound assay components are then mixed for 10-15 minutes on a shaker at room temperature. GTP [γ-^35S] (200 pM) and bead/membrane/compound assay mixture are added to individual wells of a 96 well Optiplate™ (final volume 225 μl/well), sealed and incubated at room temperature for 110 to 120 minutes under constant shaking. After centrifugation (2000 rpm, 10 minutes) luminescence is measured with a TopCount™ instrument.
EC50 values are obtained by fitting the GTP [γ-^35S] binding curves (raw data) with the dose response curve-fitting tool of ORIGIN V. 6.1. […]

[2] = test system: peripheral blood lymphocytes; test: Blood lymphocyte depletion, measurement of circulating lymphocytes; type: in vivo; conditions: Rattus norvegicus, Lewis rats, oral gavage 0.01-5 mg/kg, blood 6 and 48 hours after administration, read-out: ED50, effective dose required displaying 50% of blood lymphocyte depletion
Procedure: C. In vivo: Screening Assays for Measurement of Blood Lymphocyte Depletion
Measurements of circulating lymphocytes: Compounds are dissolved in DMSO and PEG300 and diluted to obtain a final concentration of 2% DMSO and 2% PEG300 (v/v, final concentration). Lewis rats are administered compound solution orally by gavages at 0.01-5 mg/kg under short isoflurane anesthesia.
Blood is collected from the retro-orbital sinus 6 and 48 hours after drug administration under short isoflurane anesthesia. Whole blood samples are subjected to hematology analysis. Peripheral lymphocyte counts are determined using an automated analyzer. Subpopulations of peripheral blood lymphocytes are stained by fluorochrome-conjugated specific antibodies and analyzed using a fluorescent activating cell sorter (Facscalibur). Two to three rats are used to assess the lymphocyte depletion activity of each compound screened. The result is an ED50, which is defined as the effective dose required displaying 50% of blood lymphocyte depletion.

T1 sequence (P21453 whole entry): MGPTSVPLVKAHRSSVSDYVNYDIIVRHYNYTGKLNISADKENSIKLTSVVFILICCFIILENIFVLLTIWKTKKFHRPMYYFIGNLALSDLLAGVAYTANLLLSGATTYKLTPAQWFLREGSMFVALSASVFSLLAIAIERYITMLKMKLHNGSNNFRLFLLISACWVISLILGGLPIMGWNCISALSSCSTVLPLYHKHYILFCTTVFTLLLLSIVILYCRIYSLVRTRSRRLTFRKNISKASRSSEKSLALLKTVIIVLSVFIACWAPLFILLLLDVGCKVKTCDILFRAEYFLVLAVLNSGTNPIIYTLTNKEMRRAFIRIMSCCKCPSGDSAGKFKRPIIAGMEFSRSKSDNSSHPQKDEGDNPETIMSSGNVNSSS

fold selective for EDG-1 compared to one or more of the other receptors including EDG-3, EDG-5, EDG-6 and EDG-8 [1]: at least 500 fold | pEC50 (human EDG-1): 9.05
Compound: O=C(O)c1ccc(-c2ccc(COc3ccc(-c4ccccc4F)c(C(F)(F)F)c3)cc2)cn1 [Example 1, 5-[4-(2′-Fluoro-2-trifluoromethyl-biphenyl-4-yloxymethyl)-phenyl]-pyridine-2-carboxylic acid]
ED50 [2]: 0.3 mg/kg

Reference: patent publication US20090221547A1, “Immunosuppressant Compounds and Compositions” (IRM LLC, priority 2005, published 2009)
